Assay results reported in US20130165489A1, “Small Molecule Modulators of HIV-1 Capsid Stability and Methods Thereof” (The Trustees of the University of Pennsylvania, priority 2010, published 2013).
“Also recorded” adds a separate entry of the source.

Assays:
[1] = system: HIV-1 92UG024 (subtype D clinical isolate); assay: Anti-HIV efficacy in human PBMCs, isolate 92UG024; assay type: cell-based
Experimental: (§1) HIV human peripheral blood mononuclear cell (PBMC) assays were performed as described previously (Lanier et al., 2010, Antimicrob. Agents Chemother. 54:2901-09; Ptak et al., 2008, Antimicrob. Agents Chemother. 52:1302-17). Briefly, fresh PBMCs, seronegative for HIV and hepatitis B virus (HBV), were isolated from blood samples of the screened donors (Biological Specialty Corporation, Colmar, Pa.) by using lymphocyte separation medium (LSM; density, 1.078±0.002 g/ml; Cellgro; Mediatech, Inc.) by following the manufacturer's instructions. Cells were stimulated by incubation in 4 μg/mL phytohemagglutinin (PHA; Sigma) for 48 to 72 h. Mitogenic stimulation was maintained by the addition of 20 U/mL recombinant human interleukin-2 (rhIL-2; R&D Systems, Inc.) to the culture medium. PHA-stimulated PBMCs from at least two donors were pooled, diluted in fresh medium, and added to 96-well plates at 5×10^4 cells/well. Cells were infected (final multiplicity of infection [MOI] of ≅0.1) in the presence of 9 different concentrations of test compounds (triplicate wells/concentration) and incubated for 7 days. […] Following removal of supernatant samples, compound cytotoxicity was measured by the addition of 3-(4,5-dimethylthiazol-2-yl)-5-(3-carboxymethoxyphenyl)-2-(4-sulfophenyl)-2H-tetrazolium (MTS; CellTiter 96 reagent; Promega) by following the manufacturer's instructions. […]

mutant HIV-1 CA proteins = assay: Binding site analysis via SPR, mutant CA proteins; conditions: alanine mutants of residues 137 and R173, 27.5 μM
Experimental: Wild-type and mutant HIV-1 CA proteins were attached to the surface by standard amine chemistry as described above. Compound CMPD-E was injected over these surfaces at a concentration of 27.5 μM at a flow rate of 50 μL min^−1, for a 2-min association phase, followed by a 5-min dissociation phase, and the response at equilibrium recorded. For comparison, and to take into account minor differences in the ligand density of the mutant surfaces, responses were normalized to the theoretical Rmax, assuming a 2:1 interaction.
Data analysis was performed using BIAEvaluation 4.0 software. The responses of a buffer injection and responses from the reference flow cell were subtracted to account for nonspecific binding. In order to obtain the equilibrium dissociation constants (KD), experimental data were fitted globally to the heterogeneous ligand model. The average parameters generated from a minimum of 4 data sets were used to define the equilibrium dissociation constants (KD1 and KD2). In the mutant CA protein studies, the average maximum response was generated from a minimum of 6 data sets and was used to define the average maximum response for compound CMPD-E binding to wild-type and mutant HIV-1 CA proteins.

[2] = system: HIV-1 93IN101 (subtype C clinical isolate); assay: Anti-HIV efficacy in human PBMCs, isolate 93IN101; assay type: cell-based
Experimental: as §1

[3] = system: recombinant luciferase-expressing HIV-1 bearing the envelope glycoprotein of the HIV-1YU-2 strain; assay: Single-round infection assay, HIV-1 with YU-2 envelope on Cf2Th-CCR5 cells
[4] = system: HIV-1 92BR025 (subtype C clinical isolate); assay: Anti-HIV efficacy in human PBMCs, isolate 92BR025; assay type: cell-based
Experimental: as §1

[5] = system: HIV-1 92UG031 (subtype A clinical isolate); assay: Anti-HIV efficacy in human PBMCs, isolate 92UG031; assay type: cell-based
Experimental: as §1

[6] = system: HIV-1 93BR020 (subtype F clinical isolate); assay: Anti-HIV efficacy in human PBMCs, isolate 93BR020; assay type: cell-based
Experimental: as §1

in vitro = assay type: cell-based; conditions: human
Experimental: HIV human peripheral blood mononuclear cell (PBMC) assays were performed as described previously (Lanier et al., 2010, Antimicrob. Agents Chemother. 54:2901-09; Ptak et al., 2008, Antimicrob. Agents Chemother. 52:1302-17). Briefly, fresh PBMCs, seronegative for HIV and hepatitis B virus (HBV), were isolated from blood samples of the screened donors (Biological Specialty Corporation, Colmar, Pa.) by using lymphocyte separation medium (LSM; density, 1.078±0.002 g/ml; Cellgro; Mediatech, Inc.) by following the manufacturer's instructions. Cells were stimulated by incubation in 4 μg/mL phytohemagglutinin (PHA; Sigma) for 48 to 72 h. Mitogenic stimulation was maintained by the addition of 20 U/mL recombinant human interleukin-2 (rhIL-2; R&D Systems, Inc.) to the culture medium. PHA-stimulated PBMCs from at least two donors were pooled, diluted in fresh medium, and added to 96-well plates at 5×10^4 cells/well. Cells were infected (final multiplicity of infection [MOI] of ≅0.1) in the presence of 9 different concentrations of test compounds (triplicate wells/concentration) and incubated for 7 days. […] Following removal of supernatant samples, compound cytotoxicity was measured by the addition of 3-(4,5-dimethylthiazol-2-yl)-5-(3-carboxymethoxyphenyl)-2-(4-sulfophenyl)-2H-tetrazolium (MTS; CellTiter 96 reagent; Promega) by following the manufacturer's instructions.

[7] = system: HIV-1 G3 (subtype G clinical isolate); assay: Anti-HIV efficacy in human PBMCs, isolate G3; assay type: cell-based
Experimental: as §1

[8] = Human immunodeficiency virus 1, PBMC

With `O=C(O)c1ccc(-c2nc(-c3ccccc3)c(-c3ccccc3)[nH]2)cc1` [CMPD-E, 4-(4,5-diphenyl-1H-imidazol-2-yl)benzoic acid] as the compound, how does the IC50 [1, 8] read?
Its IC50 is 51.8 µM.

What about the “Antiviral index (TC50/IC50)” value ([1]; PBMC) of the same compound?
Its value is greater than 1.93.

And the “reduction of binding to mutant CA compared to wild-type CA” value (mutant HIV-1 CA proteins)?
Its value is greater than 2 fold.

And the IC50 [2, 8]?
The IC50 was 48.4 µM.

What about the “Antiviral index (TC50/IC50)” value ([2]; PBMC) of the same compound?
The value was greater than 2.07.

And the “activity in the single-round infection assay” value ([3]; Cf2Th-CCR5 cells, YU-2 envelope)?
Its value is “retained the activity of the parental molecule; also recorded: retained all of the inhibitory capability of the parental compound”.

What about the IC50 ([3]; Human immunodeficiency virus 1, Cf2Th-CCR5, read-out: IC50 against HIV-1 (single-round infection)) of the same compound?
The IC50 was 22.5 ± 1.1 µM.

What about the IC50 [4, 8] of the same compound?
Its IC50 is 51 µM.

What about the “Antiviral index (TC50/IC50)” value ([4]; PBMC) of the same compound?
The value was greater than 1.96.

What about the IC50 [5, 8] of the same compound?
Its IC50 is 93.6 µM.

What about the “Antiviral index (TC50/IC50)” value ([5]; PBMC) of the same compound?
Its value is greater than 1.07.

What about the IC50 [6, 8] of the same compound?
The IC50 was 65.6 µM.

And the “Antiviral index (TC50/IC50)” value ([6]; PBMC)?
The value was greater than 1.53.

What about the CC50 at 7 days (in vitro) of the same compound?
The CC50 at 7 days was greater than 100 µM.

And the IC50 [7, 8]?
Its IC50 is 9.03 µM.

And the “Antiviral index (TC50/IC50)” value ([7]; PBMC)?
The value was greater than 11.1.
